According to ChEMBL document CHEMBL1142345, “Synthesis and biological evaluation of alpha- and beta-6-amido derivatives of 17-cyclopropylmethyl-3, 14beta-dihydroxy-4, 5alpha-epoxymorphinan: potential alcohol-cessation agents” (J Med Chem, 2008):
Calls of active or inactive are those of the source. The calls are words filed in the database; no cut-off is given here.

Key:
[1] = biological target: T1, Kappa-type opioid receptor (Homo sapiens, UniProt P41145); assay: Displacement of [3H]U69593 from human kappa opioid receptor expressed in CHO cells; format: cell-based
Mu-type opioid receptor [2] = biological target: T2, Mu-type opioid receptor (Homo sapiens, UniProt P35372); assay: Displacement of [3H]DAMGO from human mu opioid receptor expressed in CHO cells; format: cell-based
CYP2D6 = CYP2D6 (Homo sapiens, UniProt P10635); assay: in vitro
Description: Inhibition of CYP2D6 at 10 uM

CYP2C19 = CYP2C19 (Homo sapiens, UniProt P33261); assay: Inhibition of CYP2C19 at 10 uM; format: ADME
Homo sapiens [3] = species: Homo sapiens; assay: Selectivity ratio of Ki for human mu opioid receptor over Ki for human kappa opioid receptor
[4] = biological target: T3, Delta-type opioid receptor (Homo sapiens, UniProt P41143); assay: Agonist activity at human delta opioid receptorR by [35S]GTPgammaS binding assay; format: functional
Homo sapiens [5] = species: Homo sapiens; assay: Selectivity ratio of Ki for human mu opioid receptor over Ki for human delta opioid receptor
[6] = biological target: T3, Delta-type opioid receptor; assay: biochemical
Description: Displacement of [3H]DPDPE from human delta opioid receptor expressed in CHO cells

Rattus norvegicus [7] = assay: Inhibition of self alcohol consumption in rat at 1.5 mg/kg using operant techniques; format: functional
Mu-type opioid receptor [8] = biological target: T2, Mu-type opioid receptor
Description: Activity at human mu opioid receptor by [35S]GTPgammaS binding assay

[9] = biological target: T1, Kappa-type opioid receptor; assay: Agonist activity at human kappa opioid receptorR by [35S]GTPgammaS binding assay; format: functional
CYP3A4 = CYP3A4 (Homo sapiens, UniProt P08684); assay: Inhibition of CYP3A4 at 10 uM; format: ADME
CYP2C9 = CYP2C9 (Homo sapiens, UniProt P11712); assay: Inhibition of CYP2C9 at 10 uM; format: ADME
CYP2B6 = biological target: T4, CYP2B6 (Homo sapiens, UniProt P20813); assay: Inhibition of CYP2B6 at 10 uM; format: ADME
T4 sequence (P20813 whole entry): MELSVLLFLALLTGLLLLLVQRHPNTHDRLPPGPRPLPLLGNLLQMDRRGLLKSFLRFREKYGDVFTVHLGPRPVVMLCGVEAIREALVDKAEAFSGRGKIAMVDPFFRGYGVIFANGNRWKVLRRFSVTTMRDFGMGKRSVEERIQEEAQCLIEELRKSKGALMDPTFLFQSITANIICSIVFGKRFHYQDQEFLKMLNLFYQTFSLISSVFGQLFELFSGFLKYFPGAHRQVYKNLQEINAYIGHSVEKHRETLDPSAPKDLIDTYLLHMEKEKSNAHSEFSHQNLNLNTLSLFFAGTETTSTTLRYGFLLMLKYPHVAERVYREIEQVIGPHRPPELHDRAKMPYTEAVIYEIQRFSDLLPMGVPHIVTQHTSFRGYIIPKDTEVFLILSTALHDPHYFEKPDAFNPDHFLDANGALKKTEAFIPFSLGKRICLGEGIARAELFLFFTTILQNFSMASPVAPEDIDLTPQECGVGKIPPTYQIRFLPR

Rattus norvegicus [10] = assay: Inhibition of self alcohol consumption in rat at 2 mg/kg using operant techniques; format: functional
[11] = Metabolic stability assessed as half life in mouse liver microsomes at 40 uM; format: ADME, Microsome
Rattus norvegicus [12] = species: Rattus norvegicus; assay: Inhibition of self alcohol consumption in rat using operant techniques; format: functional
[13] = Metabolic stability assessed as half life in human liver S9 fraction at 40 uM; format: ADME, subcellular
[14] = biological target: T3, Delta-type opioid receptor; assay: Activity at human delta opioid receptor by [35S]GTPgammaS binding assay; format: functional
Rattus norvegicus [15] = assay: Inhibition of self alcohol consumption in rat at 0.025 mg/kg using operant techniques; format: functional

T3 sequence (P41143 whole entry): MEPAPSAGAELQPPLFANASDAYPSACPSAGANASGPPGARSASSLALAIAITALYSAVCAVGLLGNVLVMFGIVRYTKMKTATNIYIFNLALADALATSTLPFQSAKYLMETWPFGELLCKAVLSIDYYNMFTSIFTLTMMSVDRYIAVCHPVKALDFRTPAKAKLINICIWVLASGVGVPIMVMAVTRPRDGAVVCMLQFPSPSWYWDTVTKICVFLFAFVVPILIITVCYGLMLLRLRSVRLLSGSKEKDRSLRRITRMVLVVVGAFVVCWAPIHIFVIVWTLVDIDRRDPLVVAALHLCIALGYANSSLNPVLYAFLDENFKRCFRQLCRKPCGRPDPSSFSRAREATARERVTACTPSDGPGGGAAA
Sequence of CYP3A4 (P08684 whole entry): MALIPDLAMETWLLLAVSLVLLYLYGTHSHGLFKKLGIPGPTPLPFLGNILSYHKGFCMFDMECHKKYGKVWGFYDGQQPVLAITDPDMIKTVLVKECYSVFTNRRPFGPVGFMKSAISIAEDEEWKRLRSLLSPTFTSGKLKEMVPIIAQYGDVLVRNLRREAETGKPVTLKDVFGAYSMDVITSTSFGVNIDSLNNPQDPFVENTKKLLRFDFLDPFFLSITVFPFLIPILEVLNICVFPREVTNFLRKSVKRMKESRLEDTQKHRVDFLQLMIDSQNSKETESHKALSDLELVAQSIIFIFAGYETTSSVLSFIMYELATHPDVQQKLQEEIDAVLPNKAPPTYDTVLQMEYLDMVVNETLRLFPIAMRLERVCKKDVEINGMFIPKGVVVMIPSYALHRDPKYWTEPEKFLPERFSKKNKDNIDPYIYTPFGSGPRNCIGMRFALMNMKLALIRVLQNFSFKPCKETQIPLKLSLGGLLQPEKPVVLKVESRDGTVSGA
Sequence of CYP2D6 (P10635 whole entry): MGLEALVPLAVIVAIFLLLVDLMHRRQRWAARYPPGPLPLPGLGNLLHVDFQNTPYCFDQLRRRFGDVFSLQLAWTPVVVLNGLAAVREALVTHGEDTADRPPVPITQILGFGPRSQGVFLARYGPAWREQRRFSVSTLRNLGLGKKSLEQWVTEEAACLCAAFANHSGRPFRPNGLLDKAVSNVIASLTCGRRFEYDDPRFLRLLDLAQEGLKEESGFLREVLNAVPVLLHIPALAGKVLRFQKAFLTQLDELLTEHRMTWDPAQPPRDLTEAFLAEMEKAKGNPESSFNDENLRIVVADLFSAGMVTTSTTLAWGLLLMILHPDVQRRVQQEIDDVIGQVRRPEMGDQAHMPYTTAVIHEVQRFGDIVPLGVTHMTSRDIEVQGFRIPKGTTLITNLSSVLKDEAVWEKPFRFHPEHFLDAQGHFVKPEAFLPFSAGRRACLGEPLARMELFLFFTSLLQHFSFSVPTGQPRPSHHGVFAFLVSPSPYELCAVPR
Sequence of CYP2C19 (P33261 whole entry): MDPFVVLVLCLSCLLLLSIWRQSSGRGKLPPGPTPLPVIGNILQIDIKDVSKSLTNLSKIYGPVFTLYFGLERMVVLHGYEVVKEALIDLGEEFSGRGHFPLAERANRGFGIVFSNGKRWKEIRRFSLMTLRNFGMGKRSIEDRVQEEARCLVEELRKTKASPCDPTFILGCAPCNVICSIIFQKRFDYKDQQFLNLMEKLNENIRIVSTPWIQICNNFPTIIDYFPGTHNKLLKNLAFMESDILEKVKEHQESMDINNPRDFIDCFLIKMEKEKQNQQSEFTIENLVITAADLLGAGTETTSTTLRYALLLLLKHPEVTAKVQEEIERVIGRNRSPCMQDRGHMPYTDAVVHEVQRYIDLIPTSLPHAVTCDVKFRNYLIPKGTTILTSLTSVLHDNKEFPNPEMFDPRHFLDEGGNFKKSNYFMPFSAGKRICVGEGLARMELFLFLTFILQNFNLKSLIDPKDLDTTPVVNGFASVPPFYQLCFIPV
T2 sequence (P35372 whole entry): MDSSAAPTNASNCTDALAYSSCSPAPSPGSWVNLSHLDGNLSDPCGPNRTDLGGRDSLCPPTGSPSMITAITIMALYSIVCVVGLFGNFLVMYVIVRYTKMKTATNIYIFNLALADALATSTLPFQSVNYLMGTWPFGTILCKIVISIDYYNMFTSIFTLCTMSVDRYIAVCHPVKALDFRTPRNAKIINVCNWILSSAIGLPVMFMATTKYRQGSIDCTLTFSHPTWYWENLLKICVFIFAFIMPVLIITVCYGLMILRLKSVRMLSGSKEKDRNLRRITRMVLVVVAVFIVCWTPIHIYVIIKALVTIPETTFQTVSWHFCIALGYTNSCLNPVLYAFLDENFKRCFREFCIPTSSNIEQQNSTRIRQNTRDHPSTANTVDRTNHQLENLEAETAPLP
T1 sequence (P41145 whole entry): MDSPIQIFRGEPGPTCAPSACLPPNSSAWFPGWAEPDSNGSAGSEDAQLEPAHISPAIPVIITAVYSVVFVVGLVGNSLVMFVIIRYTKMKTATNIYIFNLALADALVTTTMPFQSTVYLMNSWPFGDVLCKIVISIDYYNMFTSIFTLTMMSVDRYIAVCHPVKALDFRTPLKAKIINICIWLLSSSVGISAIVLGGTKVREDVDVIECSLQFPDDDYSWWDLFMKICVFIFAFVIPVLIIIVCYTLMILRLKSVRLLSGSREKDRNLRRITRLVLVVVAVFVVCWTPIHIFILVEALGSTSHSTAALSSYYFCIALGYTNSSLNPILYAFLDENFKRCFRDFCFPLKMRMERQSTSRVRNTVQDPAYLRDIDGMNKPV
Sequence of CYP2C9 (P11712 whole entry): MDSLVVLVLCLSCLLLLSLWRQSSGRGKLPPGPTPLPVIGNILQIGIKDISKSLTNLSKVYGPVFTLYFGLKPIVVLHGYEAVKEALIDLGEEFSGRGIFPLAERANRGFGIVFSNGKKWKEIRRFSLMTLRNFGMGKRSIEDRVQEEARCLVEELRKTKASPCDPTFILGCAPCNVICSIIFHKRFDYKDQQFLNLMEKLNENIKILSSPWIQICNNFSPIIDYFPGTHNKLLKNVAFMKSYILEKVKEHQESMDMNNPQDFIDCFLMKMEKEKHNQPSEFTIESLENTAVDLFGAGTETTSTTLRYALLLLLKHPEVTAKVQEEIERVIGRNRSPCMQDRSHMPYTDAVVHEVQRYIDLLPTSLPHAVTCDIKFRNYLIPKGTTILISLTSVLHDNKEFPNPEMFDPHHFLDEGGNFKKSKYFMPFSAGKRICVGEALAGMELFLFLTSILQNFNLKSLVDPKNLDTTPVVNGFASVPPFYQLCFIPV

CN(C)c1cccc(C(=O)NC2CC[C@@]3(O)[C@H]4Cc5ccc(O)c6c5[C@@]3(CCN4CC3CC3)[C@H]2O6)c1 (some centres undefined)
Ki [1]: 1.7 nM
Ki (Mu-type opioid receptor [2]): 1.2 nM
inhibition at 10 µM (CYP2D6): 23.5%
inhibition at 10 µM (CYP2C19): 70%
Ratio Ki (Homo sapiens [3]): 1.42
Activity [4]: Active
Ratio Ki (Homo sapiens [5]): 7.08
Ki [6]: 8.5 nM
inhibition in vivo at 1.5 mg/kg (Rattus norvegicus [7]): 17%
Ke (Mu-type opioid receptor [8]): 0.14 nM
Activity [9]: Active
inhibition at 10 µM (CYP3A4): 39.9%
inhibition at 10 µM (CYP2C9): 23.1%

O=C(Cc1cccs1)N[C@H]1CC[C@@]2(O)[C@H]3Cc4ccc(O)c5c4[C@@]2(CCN3CC2CC2)[C@H]1O5
Ki [1]: 2.74 nM
Ki (Mu-type opioid receptor [2]): 0.38 nM
Ratio Ki (Homo sapiens [3]): 7.2
Ratio Ki (Homo sapiens [5]): 5.5
Ki [6]: 2.07 nM

COc1cccc(C(=O)N[C@@H]2CC[C@@]3(O)[C@H]4Cc5ccc(O)c6c5[C@@]3(CCN4CC3CC3)[C@H]2O6)c1
Ki [1]: 0.24 nM
Ki (Mu-type opioid receptor [2]): 0.12 nM
inhibition at 10 µM (CYP2D6): 31.2%
inhibition at 10 µM (CYP2C19): 47.1%
Ratio Ki (Homo sapiens [3]): 2
Activity [4]: Active
Ratio Ki (Homo sapiens [5]): 32
Ki [6]: 3.8 nM
inhibition at 10 µM (CYP2B6): 49.3%
inhibition in vivo at 2 mg/kg (Rattus norvegicus [10]): 75%
Ke (Mu-type opioid receptor [8]): 0.17 nM
Activity [9]: Active
inhibition at 10 µM (CYP3A4): 44.9%

COc1ccc(CC(=O)N[C@@H]2CC[C@@]3(O)[C@H]4Cc5ccc(O)c6c5[C@@]3(CCN4CC3CC3)[C@H]2O6)cc1
Ki [1]: 0.42 nM
Ki (Mu-type opioid receptor [2]): 0.27 nM
Ratio Ki (Homo sapiens [3]): 1.6
Ratio Ki (Homo sapiens [5]): 74
Ki [6]: 19.9 nM

O=C(C[C@@H]1O[C@H](CO)[C@@H](O)[C@H](O)[C@H]1O)N[C@@H]1CC[C@@]2(O)[C@H]3Cc4ccc(O)c5c4[C@@]2(CCN3CC2CC2)[C@H]1O5
Ki [1]: 4.5 nM
Ki (Mu-type opioid receptor [2]): 0.64 nM
Ratio Ki (Homo sapiens [3]): 7
Ratio Ki (Homo sapiens [5]): 150
Ki [6]: 99 nM
Ke (Mu-type opioid receptor [8]): 0.37 nM

O=C(Cc1ccccc1)N[C@@H]1CC[C@@]2(O)[C@H]3Cc4ccc(O)c5c4[C@@]2(CCN3CC2CC2)[C@H]1O5
Ki [1]: 0.43 nM
Ki (Mu-type opioid receptor [2]): 0.16 nM
Ratio Ki (Homo sapiens [3]): 2.7
Ratio Ki (Homo sapiens [5]): 180
Ki [6]: 28 nM

O=C(CCc1ccccc1)N[C@@H]1CC[C@@]2(O)[C@H]3Cc4ccc(O)c5c4[C@@]2(CCN3CC2CC2)[C@H]1O5
Ki [1]: 0.09 nM
Ki (Mu-type opioid receptor [2]): 0.12 nM
Ratio Ki (Homo sapiens [3]): 0.8
Ratio Ki (Homo sapiens [5]): 100
Ki [6]: 12.2 nM
Ke (Mu-type opioid receptor [8]): 0.15 nM

O=C(Cc1cccs1)N[C@@H]1CC[C@@]2(O)[C@H]3Cc4ccc(O)c5c4[C@@]2(CCN3CC2CC2)[C@H]1O5
Ki [1]: 1.2 nM
Ki (Mu-type opioid receptor [2]): 0.43 nM
Ratio Ki (Homo sapiens [3]): 2.8
Ratio Ki (Homo sapiens [5]): 75
Ki [6]: 32.4 nM
Ke (Mu-type opioid receptor [8]): 0.41 nM

COc1cccc(C(=O)N[C@H]2CC[C@@]3(O)[C@H]4Cc5ccc(O)c6c5[C@@]3(CCN4CC3CC3)[C@H]2O6)c1
Ki [1]: 0.72 nM
Ki (Mu-type opioid receptor [2]): 0.16 nM
Ratio Ki (Homo sapiens [3]): 4.5
Ratio Ki (Homo sapiens [5]): 36
Ki [6]: 5.82 nM
half-life at 40 µM [11]: 49 min

C=C1CC[C@@]2(O)[C@H]3Cc4ccc(O)c5c4[C@@]2(CCN3CC2CC2)[C@H]1O5
ED50 (Rattus norvegicus [12]): 0.04 mg/kg
half-life at 40 µM [11]: 20 min
half-life at 40 µM [13]: 20 min
inhibition at 10 µM (CYP2C9): 35.5%

COc1cccc(CC(=O)N[C@@H]2CC[C@@]3(O)[C@H]4Cc5ccc(O)c6c5[C@@]3(CCN4CC3CC3)[C@H]2O6)c1
Ki [1]: 0.45 nM
Ki (Mu-type opioid receptor [2]): 0.13 nM
Ratio Ki (Homo sapiens [3]): 3.5
Ratio Ki (Homo sapiens [5]): 120
Ki [6]: 15.8 nM

COc1cc(OC)cc(C(=O)N[C@@H]2CC[C@@]3(O)[C@H]4Cc5ccc(O)c6c5[C@@]3(CCN4CC3CC3)[C@H]2O6)c1
Ki [1]: 0.29 nM
Ki (Mu-type opioid receptor [2]): 0.26 nM
Ratio Ki (Homo sapiens [3]): 1.1
Ratio Ki (Homo sapiens [5]): 68
Ki [6]: 17.6 nM

O=C(N[C@H]1CC[C@@]2(O)[C@H]3Cc4ccc(O)c5c4[C@@]2(CCN3CC2CC2)[C@H]1O5)c1ccccc1
Ki [1]: 0.78 nM
Ki (Mu-type opioid receptor [2]): 0.21 nM

COC(=O)c1ccc(C(=O)N[C@@H]2CC[C@@]3(O)[C@H]4Cc5ccc(O)c6c5[C@@]3(CCN4CC3CC3)[C@H]2O6)cc1
Ki [1]: 0.73 nM
Ki (Mu-type opioid receptor [2]): 0.21 nM
Ratio Ki (Homo sapiens [3]): 3.5
Ratio Ki (Homo sapiens [5]): 130
Ki [6]: 27.2 nM

O=C(N[C@@H]1CC[C@@]2(O)[C@H]3Cc4ccc(O)c5c4[C@@]2(CCN3CC2CC2)[C@H]1O5)c1ccccc1
Ki [1]: 0.16 nM
Ki (Mu-type opioid receptor [2]): 0.18 nM

O=C(C[C@@H]1O[C@H](COCc2ccccc2)[C@@H](OCc2ccccc2)[C@H](OCc2ccccc2)[C@H]1OCc1ccccc1)N[C@H]1CC[C@@]2(O)[C@H]3Cc4ccc(O)c5c4[C@@]2(CCN3CC2CC2)[C@H]1O5
Ki [1]: 0.51 nM
Ki (Mu-type opioid receptor [2]): 1.49 nM
Ke [14]: 10.3 nM
Ratio Ki (Homo sapiens [3]): 0.34
Ratio Ki (Homo sapiens [5]): 16.5
Ki [6]: 24.5 nM
Ke (Mu-type opioid receptor [8]): 0.16 nM

O=C(N[C@@H]1CC[C@@]2(O)[C@H]3Cc4ccc(O)c5c4[C@@]2(CCN3CC2CC2)[C@H]1O5)c1ccc(Cl)c(Cl)c1
inhibition at 10 µM (CYP2C19): 48.3%
half-life at 40 µM [13]: 346 min
inhibition at 10 µM (CYP3A4): 35.5%
inhibition in vivo at 0.025 mg/kg (Rattus norvegicus [15]): 77%
inhibition at 10 µM (CYP2C9): 32.3%

O=C(N[C@@H]1CC[C@@]2(O)[C@H]3Cc4ccc(O)c5c4[C@@]2(CCN3CC2CC2)[C@H]1O5)c1ccc(Cl)cc1
inhibition at 10 µM (CYP2D6): 4.7%
ED50 (Rattus norvegicus [12]): 0.5 mg/kg
inhibition at 10 µM (CYP2C19): 39.1%
half-life at 40 µM [11]: 255 min
inhibition at 10 µM (CYP2B6): 7%
inhibition at 10 µM (CYP3A4): 30.8%
inhibition at 10 µM (CYP2C9): 28.1%

CC(C)(C)OC(=O)Nc1ccc(C(=O)N[C@@H]2CC[C@@]3(O)[C@H]4Cc5ccc(O)c6c5[C@@]3(CCN4CC3CC3)[C@H]2O6)cc1
Ki [1]: 0.79 nM
Ki (Mu-type opioid receptor [2]): 0.92 nM
Ratio Ki (Homo sapiens [3]): 0.86
Ratio Ki (Homo sapiens [5]): 28
Ki [6]: 25.3 nM

O=C(O)c1ccc(C(=O)N[C@@H]2CC[C@@]3(O)[C@H]4Cc5ccc(O)c6c5[C@@]3(CCN4CC3CC3)[C@H]2O6)cc1
Ki [1]: 151 nM
Ki (Mu-type opioid receptor [2]): 10.1 nM
Ratio Ki (Homo sapiens [3]): 14.9
Ratio Ki (Homo sapiens [5]): 7860
Ki [6]: 79.2 nM

O=C(/C=C/Cc1ccccc1)N[C@@H]1CC[C@@]2(O)[C@H]3Cc4ccc(O)c5c4[C@@]2(CCN3CC2CC2)[C@H]1O5
Ki [1]: 0.91 nM
Ki (Mu-type opioid receptor [2]): 0.06 nM
Ratio Ki (Homo sapiens [3]): 20
Ratio Ki (Homo sapiens [5]): 100
Ki [6]: 8.22 nM

O=C(N[C@@H]1CC[C@@]2(O)[C@H]3Cc4ccc(O)c5c4[C@@]2(CCN3CC2CC2)[C@H]1O5)c1cccc(O)c1
Ki [1]: 0.06 nM
Ki (Mu-type opioid receptor [2]): 0.13 nM
Ratio Ki (Homo sapiens [3]): 0.5
Ratio Ki (Homo sapiens [5]): 21
Ki [6]: 2.73 nM

COc1cc(OC)cc(C(=O)N[C@H]2CC[C@@]3(O)[C@H]4Cc5ccc(O)c6c5[C@@]3(CCN4CC3CC3)[C@H]2O6)c1
Ki [1]: 2.41 nM
Ki (Mu-type opioid receptor [2]): 0.19 nM
Ratio Ki (Homo sapiens [3]): 13
Ratio Ki (Homo sapiens [5]): 36
Ki [6]: 6.83 nM

O=C(C[C@@H]1O[C@H](CO)[C@@H](O)[C@H](O)[C@H]1O)N[C@H]1CC[C@@]2(O)[C@H]3Cc4ccc(O)c5c4[C@@]2(CCN3CC2CC2)[C@H]1O5
Ki [1]: 2.03 nM
Ki (Mu-type opioid receptor [2]): 0.67 nM
Ratio Ki (Homo sapiens [3]): 3
Ratio Ki (Homo sapiens [5]): 55
Ki [6]: 36.9 nM

Nc1ccc(C(=O)N[C@@H]2CC[C@@]3(O)[C@H]4Cc5ccc(O)c6c5[C@@]3(CCN4CC3CC3)[C@H]2O6)cc1
Ki [1]: 0.4 nM
Ki (Mu-type opioid receptor [2]): 0.43 nM
Ratio Ki (Homo sapiens [3]): 0.93
Ratio Ki (Homo sapiens [5]): 85
Ki [6]: 36.5 nM

O=C(N[C@@H]1CC[C@@]2(O)[C@H]3Cc4ccc(O)c5c4[C@@]2(CCN3CC2CC2)[C@H]1O5)c1cccc([N+](=O)[O-])c1
Ki [1]: 0.28 nM
Ki (Mu-type opioid receptor [2]): 0.19 nM

O=C(N[C@@H]1CC[C@@]2(O)[C@H]3Cc4ccc(O)c5c4[C@@]2(CCN3CC2CC2)[C@H]1O5)c1ccccn1
Ki [1]: 0.39 nM
Ki (Mu-type opioid receptor [2]): 0.31 nM
Ratio Ki (Homo sapiens [3]): 1.3
Ratio Ki (Homo sapiens [5]): 180
Ki [6]: 56.3 nM
